Laboratory results published in PubChem BioAssay AID280 (DTP/NCI, 2004).
Where “and” joins values, the source holds several entries; their conditions need not be identical. Equal values may be shown once. Toxic doses and inconclusive results are not listed.

Test system: nude mice, LOX melanoma ip, survival T/C
Test: NCI In Vivo Anticancer Drug Screen. Data for tumor model Human Amelanotic Melanoma (LOX) (intraperitoneal) in NU/NU BALB/C (nude) mice
Conditions: endpoint: median survival time, schedule: Q04DX003 (ip), higher = longer survival
Description: The antitumor activity of compounds was measured in mice bearing transplantable tumors. Survival or tumor size were measured and the results are expressed as the measurement made in the treated group (T) divided by the measurement made in the vehicle treated control group (C). The tumor model used in this assay is Human Amelanotic Melanoma (LOX) (intraperitoneal) in NU/NU BALB/C (nude) mice

[1] = dose: 12.5 mg/kg/injection, vehicle: water
[2] = dose: 25.0 mg/kg/injection, vehicle: water
[3] = dose: 50.0 mg/kg/injection, vehicle: water
[4] = dose: 25.0 mg/kg/injection, vehicle: saline with Tween-80
[5] = dose: 50.0 mg/kg/injection, vehicle: saline with Tween-80
[6] = dose: 100.0 mg/kg/injection, vehicle: saline with Tween-80
[7] = dose: 100.0 mg/kg/injection, vehicle: Klucel (hydroxypropylcellulose) (HPC)

O=C(O)c1cc(C(=O)O)c(C(=O)O)cc1C(=O)O.[NH2-].[NH2-].[NH2-].[NH2-].[Pt+2].[Pt+2]
T/C (dose: 6.25 mg/kg/injection, vehicle: water): 89 % of control | T/C [1]: 104 % of control | T/C [2]: 115 % of control | T/C [3]: 115 % of control

CN1CCN(CN2C(=O)C3C4C=CC(C3C2=O)C2C3C(=O)N(CN5CCN(C)CC5)C(=O)C3C42)CC1 (stereo unspecified)
T/C [1]: 104 % of control | T/C [2]: 109 % of control | T/C [3]: 110 % of control | T/C (dose: 100.0 mg/kg/injection, vehicle: water): 106 % of control

C=C1c2cccc(O)c2C(O)=C2C(=O)[C@]3(O)C(O)=C(C(N)=O)C(=O)[C@@H](N(C)C)[C@@H]3[C@@H](O)[C@H]12
T/C (dose: 37.5 mg/kg/injection, vehicle: Klucel (hydroxypropylcellulose) (HPC)): 94 % of control | T/C (dose: 75.0 mg/kg/injection, vehicle: Klucel (hydroxypropylcellulose) (HPC)): 91 % of control | T/C (dose: 300.0 mg/kg/injection, vehicle: Klucel (hydroxypropylcellulose) (HPC)): 92 % of control

Cc1ccc(C(=Nc2ccccc2)N=P(c2ccccc2)(c2ccccc2)c2ccccc2)cc1
T/C (dose: 12.5 mg/kg/injection, vehicle: saline with Tween-80): 106 % of control | T/C [4]: 115 % of control | T/C [5]: 119 % of control | T/C [6]: 104 % of control

COC(=O)C1(F)C(=O)NC(=O)NC1OC (stereo unspecified)
T/C (dose: 50.0 mg/kg/injection, vehicle: Klucel (hydroxypropylcellulose) (HPC)): 110 % of control | T/C [7]: 98 % of control | T/C (dose: 200.0 mg/kg/injection, vehicle: Klucel (hydroxypropylcellulose) (HPC)): 92 % of control | T/C (dose: 400.0 mg/kg/injection, vehicle: Klucel (hydroxypropylcellulose) (HPC)): 104 % of control | T/C (dose: 800.0 mg/kg/injection, vehicle: Klucel (hydroxypropylcellulose) (HPC)): 94 % of control

CC[C@@]1(O)C(=O)OCc2c1cc1n(c2=O)Cc2cc3ccccc3nc2-1
T/C (dose: 5.0 mg/kg/injection, vehicle: saline with Tween-80): 284 % of control

COc1ccc(S(=O)(=O)N=N/C=C2\C=CC=CN2O)cc1OC
T/C (dose: 9.38 mg/kg/injection, vehicle: saline with Tween-80): 116 % of control | T/C (dose: 18.75 mg/kg/injection, vehicle: saline with Tween-80): 101 % of control | T/C (dose: 37.5 mg/kg/injection, vehicle: saline with Tween-80): 94 % of control | T/C (dose: 54.0 mg/kg/injection, vehicle: saline with Tween-80): 124 % of control | T/C (dose: 75.0 mg/kg/injection, vehicle: saline with Tween-80): 105 % of control | T/C (dose: 150.0 mg/kg/injection, vehicle: saline with Tween-80): 173 % of control | T/C (dose: 250.0 mg/kg/injection, vehicle: saline with Tween-80): 165 % of control | T/C (dose: 416.67 mg/kg/injection, vehicle: saline with Tween-80): 156 % of control

Nc1ncc(C2OC(CO)C(O)C2O)c(=O)[nH]1 (stereo unspecified)
T/C (dose: 62.5 mg/kg/injection, vehicle: saline): 112 % of control | T/C (dose: 125.0 mg/kg/injection, vehicle: saline): 109 % of control | T/C (dose: 250.0 mg/kg/injection, vehicle: saline): 100 % of control

CN=C(N)N/N=C(\C)c1ccc2oc3ccc(/C(C)=N/NC(N)=NC)cc3c2c1
T/C (dose: 18.0 mg/kg/injection, vehicle: Klucel (hydroxypropylcellulose) (HPC)): 102 % of control and 123 % of control | T/C (dose: 30.0 mg/kg/injection, vehicle: Klucel (hydroxypropylcellulose) (HPC)): 117 % of control and 99 % of control | T/C (dose: 83.0 mg/kg/injection, vehicle: Klucel (hydroxypropylcellulose) (HPC)): 116 % of control | T/C (dose: 83.33 mg/kg/injection, vehicle: Klucel (hydroxypropylcellulose) (HPC)): 88 % of control | T/C [7]: 108 % of control

COc1cc(C(CC(C)=O)c2cc3c(cc2OC(C)=O)OCO3)cc(OC)c1OC (stereo unspecified) (tested in a mixture with another compound)
T/C [4]: 104 % of control | T/C [5]: 106 % of control | T/C [6]: 115 % of control | T/C (dose: 200.0 mg/kg/injection, vehicle: saline with Tween-80): 120 % of control
